Laboratory results from publication PMC11879280, “Antimicrobial activity of peptoids against Metallo-β-lactamase-producing Klebsiella pneumoniae, Acinetobacter baumannii, Pseudomonas aeruginosa, and other WHO priority pathogens, including Candida auris” (Journal of Applied Microbiology, 2025).

Key:
K. pneumoniae JIE2713 [1] = conditions: K. pneumoniae JIE2713; CAMHB, 37°C, 16–20 h
Procedure: (§1) Briefly, bacteria were suspended in cation-adjusted Mueller–Hinton broth (CAMHB; Oxoid, UK) for antibiotics, or MHB (Oxoid, UK) for peptidomimetics to obtain 5 × 10^5 colony forming unit (CFU) ml^−1. […] Positive controls contained only microbes, and blanks contained only media. Microbial suspensions (100 µl) were added to wells, plates wrapped, and incubated at 37°C, 120 rpm for 16–20 h. After incubation, suspensions were removed, log10 diluted, and plated on Trypticase Soya Agar with phosphatidylcholine and Tween 80 to determine minimum bactericidal or fungicidal concentration (MBC or MFC). […] Geometric mean MIC of the peptoids were calculated to evaluate the broad overview of antimicrobial activity across the pathogens.

En. cloacae 003 = conditions: En. cloacae 003; CAMHB, 37°C, 16–20 h
Procedure: as §1

E. coli 005 = conditions: E. coli 005; CAMHB, 37°C, 16–20 h
Procedure: as §1

P. aeruginosa AR-1270 = conditions: P. aeruginosa AR-1270; CAMHB, 37°C, 16–20 h
Procedure: as §1

E. coli 0010 = conditions: E. coli 0010; CAMHB, 37°C, 16–20 h
Procedure: as §1

En. cloacae 001 = conditions: En. cloacae 001; CAMHB, 37°C, 16–20 h
Procedure: as §1

K. pneumoniae JIE2709 [2] = conditions: K. pneumoniae JIE2709; CAMHB, 37°C, 16–20 h
Procedure: as §1

P. aeruginosa 216 = conditions: P. aeruginosa 216; CAMHB, 37°C, 16–20 h
Procedure: as §1

E. coli 0015 = conditions: E. coli 0015; CAMHB, 37°C, 16–20 h
Procedure: as §1

K. pneumoniae JIE4212 = conditions: K. pneumoniae JIE4212; CAMHB, 37°C, 16–20 h
Procedure: as §1

E. coli 0011 = conditions: E. coli 0011; CAMHB, 37°C, 16–20 h
Procedure: as §1

P. aeruginosa 33 = conditions: P. aeruginosa 33; CAMHB, 37°C, 16–20 h
Procedure: as §1

En. cloacae 005 = conditions: En. cloacae 005; CAMHB, 37°C, 16–20 h
Procedure: as §1

K. pneumoniae JIE2713 [3] = experiment: Checkerboard microdilution synergy test; format: cell-based, Klebsiella pneumoniae; conditions: for MIC: Klebsiella pneumoniae, read-out: MIC of DrugB (alone, checkerboard); for FICDrugB / MF of antibiotic (modulation factor) / MIC of DrugB + TM8: in combination with TM8
Procedure: (§2) Then, 10 µl of bacteria (5 × 10^6 CFU ml^−1) or C. auris (2.5 × 10^4 CFU ml^−1) were added to each well, except for the sterility control well. […] The sterility control wells contained only MHB (or RPMI in case of C. auris), and the growth control contained 110 µl of microbial inoculum with no antimicrobials. Subsequently, the plates were incubated for 18- 24 hours at 36 ± 1 °C.
(§3) The FIC for each combination interaction was calculated as follows:
(§4) Then, the summation of FIC (ƩFIC) was calculated for each antimicrobial combination as follows: ƩFIC = FICA + FICB. […] All antimicrobial synergy experiments were repeated in at least two independent runs.

A. baumannii 005 = conditions: A. baumannii 005; CAMHB, 37°C, 16–20 h
Procedure: as §1

A. baumannii 006 = conditions: A. baumannii 006; CAMHB, 37°C, 16–20 h
Procedure: as §1

A. baumannii 008 = conditions: A. baumannii 008; CAMHB, 37°C, 16–20 h
Procedure: as §1

A. baumannii 007 = conditions: A. baumannii 007; CAMHB, 37°C, 16–20 h
Procedure: as §1

A. baumannii ATCC 19 606 = conditions: A. baumannii ATCC 19 606; CAMHB, 37°C, 16–20 h
Procedure: as §1

K. pneumoniae JIE2709 [4] = experiment: Checkerboard microdilution synergy test; format: cell-based, Klebsiella pneumoniae
Procedure: as §2, §3, §4

MIC of antibiotics (K. pneumoniae JIE2713 [1]) [µg/mL]	MIC of antibiotics (En. cloacae 003) [µg/mL]	MIC of antibiotics (E. coli 005) [µg/mL]	MIC of antibiotics (P. aeruginosa AR-1270) [µg/mL]	MIC of antibiotics (E. coli 0010) [µg/mL]	MIC of antibiotics (En. cloacae 001) [µg/mL]	MIC of antibiotics (K. pneumoniae JIE2709 [2]) [µg/mL]	MIC of antibiotics (P. aeruginosa 216) [µg/mL]	MIC of antibiotics (E. coli 0015) [µg/mL]	MIC of antibiotics (K. pneumoniae JIE4212) [µg/mL]	MIC of antibiotics (E. coli 0011) [µg/mL]	MIC of antibiotics (P. aeruginosa 33) [µg/mL]	MIC of antibiotics (En. cloacae 005) [µg/mL]	MIC (K. pneumoniae JIE2713 [3]) [µg/mL]	MIC of DrugB + TM8 (K. pneumoniae JIE2713 [3]) [µg/mL]	MIC of antibiotics (A. baumannii 005) [µg/mL]	MIC of antibiotics (A. baumannii 006) [µg/mL]	MIC of antibiotics (A. baumannii 008) [µg/mL]	Structure (SMILES)	FICDrugB (K. pneumoniae JIE2713 [3])	MF of antibiotic (modulation factor) (K. pneumoniae JIE2713 [3])	further results
128	4	0.5	>128	2	4	>128	4	0.5	>128	4	128	16	128	64				C[C@H]1[C@H](NC(=O)/C(=N\OC(C)(C)C(=O)O)c2csc(N)n2)C(=O)N1S(=O)(=O)O [Azt, aztreonam, reference compound]	0.5	2	
>512	4	0.25	>512	2	4	32	2	0.5	>512	4	32	128			512	512	512	CC(C)(O/N=C(\C(=O)N[C@@H]1C(=O)N2C(C(=O)[O-])=C(C[n+]3ccccc3)CS[C@H]12)c1csc(N)n1)C(=O)O [Cefaz, ceftazidime, reference compound]			MIC of antibiotics (A. baumannii 007): 512 µg/mL; MIC of antibiotics (A. baumannii ATCC 19 606): 8 µg/mL
>512	8	0.25		2	4	32		0.5	>512	4		128	1020	512	512	512	512	CO/N=C(\C(=O)N[C@@H]1C(=O)N2C(C(=O)O)=C(COC(C)=O)CS[C@H]12)c1csc(N)n1 [Cefot, cefotaxime, reference compound]	0.5	2	MIC of antibiotics (A. baumannii 007): 512 µg/mL; MIC of antibiotics (A. baumannii ATCC 19 606): 8 µg/mL; MIC (K. pneumoniae JIE2709 [4]; Klebsiella pneumoniae, read-out: MIC of DrugB (alone, checkerboard)): 32 µg/mL; FICDrugB (K. pneumoniae JIE2709 [4]; in combination with TM8): 0.5; MF of antibiotic (modulation factor) (K. pneumoniae JIE2709 [4]; in combination with TM8): 2; MIC of DrugB + TM8 (K. pneumoniae JIE2709 [4]; in combination with TM8): 16 µg/mL
														32				O=C(O)c1cn(C2CC2)c2cc(N3CCNCC3)c(F)cc2c1=O [Cip, ciprofloxacin]	0.023	4	FICDrugB (K. pneumoniae JIE2709 [4]; in combination with TM8): 0.5; MF of antibiotic (modulation factor) (K. pneumoniae JIE2709 [4]; in combination with TM8): 2
